# Experimental data as given in ChEMBL document CHEMBL1909046, “DrugMatrix in vitro pharmacology data”.
# What was measured:
# [1] = DRUGMATRIX: Atrial Natriuretic Factor (ANF) radioligand binding (ligand: [125I] ANF (rat)); format: cell membranes, Cavia porcellus, Dunkin-Hartley, Adrenal gland, Membrane; details: Not Active = under 50% inhibition at 10 µM
# [2] = molecular target: T1, Alpha-1B adrenergic receptor (Rattus norvegicus, UniProt P15823); assay: DRUGMATRIX: Alpha-1B adrenergic receptor radioligand binding (ligand: prazosin); format: cell membranes, Wistar, Liver, Membrane; details: Not Active = under 50% inhibition at 10 µM
# T1 sequence (P15823 whole entry): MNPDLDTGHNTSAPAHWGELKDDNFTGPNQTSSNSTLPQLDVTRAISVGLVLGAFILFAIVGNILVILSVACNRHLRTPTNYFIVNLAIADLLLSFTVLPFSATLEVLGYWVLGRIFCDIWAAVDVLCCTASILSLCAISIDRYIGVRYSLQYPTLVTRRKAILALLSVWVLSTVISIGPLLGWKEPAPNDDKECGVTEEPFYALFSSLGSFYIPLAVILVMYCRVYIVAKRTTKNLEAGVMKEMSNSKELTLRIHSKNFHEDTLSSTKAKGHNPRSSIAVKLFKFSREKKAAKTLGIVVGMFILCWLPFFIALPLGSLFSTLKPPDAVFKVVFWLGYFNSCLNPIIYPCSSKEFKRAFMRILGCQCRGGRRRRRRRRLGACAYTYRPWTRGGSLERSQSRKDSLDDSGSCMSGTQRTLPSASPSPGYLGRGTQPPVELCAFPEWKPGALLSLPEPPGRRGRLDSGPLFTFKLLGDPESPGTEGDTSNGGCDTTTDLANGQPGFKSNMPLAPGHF
# [3] = molecular target: Substance-P receptor (Homo sapiens, UniProt P25103); format: cell membranes, Membrane; details: cho; note: in other assays of this panel Not Active means under 50% inhibition at 10 µM
# [4] = molecular target: T2, Alpha-2C adrenergic receptor (Homo sapiens, UniProt P18825); assay: DRUGMATRIX: Adrenergic Alpha-2C radioligand binding (ligand: [3H] MK-912); format: cell membranes, Sf9, Membrane
# T2 sequence (P18825 whole entry): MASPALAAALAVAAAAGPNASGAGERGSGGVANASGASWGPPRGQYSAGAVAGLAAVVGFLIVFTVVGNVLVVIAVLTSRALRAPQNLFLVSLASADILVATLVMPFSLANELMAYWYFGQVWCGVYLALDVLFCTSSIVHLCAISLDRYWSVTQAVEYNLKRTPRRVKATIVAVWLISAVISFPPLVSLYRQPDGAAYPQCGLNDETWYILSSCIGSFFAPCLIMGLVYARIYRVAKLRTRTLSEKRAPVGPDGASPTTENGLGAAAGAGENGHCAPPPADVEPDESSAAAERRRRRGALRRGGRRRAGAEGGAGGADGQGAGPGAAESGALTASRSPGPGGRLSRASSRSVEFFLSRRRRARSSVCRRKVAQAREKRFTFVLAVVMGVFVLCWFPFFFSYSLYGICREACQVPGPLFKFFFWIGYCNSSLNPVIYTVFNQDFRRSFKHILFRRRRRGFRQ
# [5] = molecular target: T3, Neutrophil elastase (Homo sapiens, UniProt P08246); format: tissue-based;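 note: inhibition of neutrophil elastase enzyme activity, measured with a p-nitroanilide-linked peptide substrate; in other assays of this panel Not Active means under 50% inhibition at 10 µM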
# T3 sequence (P08246 whole entry): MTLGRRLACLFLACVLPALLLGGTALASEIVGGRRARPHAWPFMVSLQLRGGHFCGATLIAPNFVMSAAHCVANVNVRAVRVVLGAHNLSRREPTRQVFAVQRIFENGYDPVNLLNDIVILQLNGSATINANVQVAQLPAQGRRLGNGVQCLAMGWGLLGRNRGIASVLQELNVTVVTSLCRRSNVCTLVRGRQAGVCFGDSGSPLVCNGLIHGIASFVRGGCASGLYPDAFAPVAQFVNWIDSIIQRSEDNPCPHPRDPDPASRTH
# [6] = molecular target: T4, Alpha-1D adrenergic receptor (Homo sapiens, UniProt P25100); format: cell membranes, HEK293, Membrane; note: in other assays of this panel Not Active means under 50% inhibition at 10 µM
# T4 sequence (P25100 whole entry): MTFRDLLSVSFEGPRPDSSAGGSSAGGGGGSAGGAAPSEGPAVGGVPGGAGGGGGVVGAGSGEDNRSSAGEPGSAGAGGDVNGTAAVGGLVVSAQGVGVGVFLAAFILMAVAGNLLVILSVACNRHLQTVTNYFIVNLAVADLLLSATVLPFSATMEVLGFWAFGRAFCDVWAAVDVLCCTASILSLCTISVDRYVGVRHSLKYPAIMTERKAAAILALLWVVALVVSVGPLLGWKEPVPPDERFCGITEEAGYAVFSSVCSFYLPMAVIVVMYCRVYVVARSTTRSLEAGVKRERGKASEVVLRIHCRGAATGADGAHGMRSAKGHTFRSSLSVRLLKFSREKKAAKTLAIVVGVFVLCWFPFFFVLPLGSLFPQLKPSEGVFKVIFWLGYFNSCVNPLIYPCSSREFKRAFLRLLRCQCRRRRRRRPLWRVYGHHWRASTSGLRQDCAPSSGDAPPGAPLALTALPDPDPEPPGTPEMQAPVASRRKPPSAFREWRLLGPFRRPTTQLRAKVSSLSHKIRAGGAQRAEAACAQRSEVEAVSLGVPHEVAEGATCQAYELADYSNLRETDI
# [7] = molecular target: T5, B2 bradykinin receptor (Homo sapiens, UniProt P30411); format: cell membranes, Membrane; details: chem-1; note: in other assays of this panel Not Active means under 50% inhibition at 10 µM
# T5 sequence (P30411 whole entry): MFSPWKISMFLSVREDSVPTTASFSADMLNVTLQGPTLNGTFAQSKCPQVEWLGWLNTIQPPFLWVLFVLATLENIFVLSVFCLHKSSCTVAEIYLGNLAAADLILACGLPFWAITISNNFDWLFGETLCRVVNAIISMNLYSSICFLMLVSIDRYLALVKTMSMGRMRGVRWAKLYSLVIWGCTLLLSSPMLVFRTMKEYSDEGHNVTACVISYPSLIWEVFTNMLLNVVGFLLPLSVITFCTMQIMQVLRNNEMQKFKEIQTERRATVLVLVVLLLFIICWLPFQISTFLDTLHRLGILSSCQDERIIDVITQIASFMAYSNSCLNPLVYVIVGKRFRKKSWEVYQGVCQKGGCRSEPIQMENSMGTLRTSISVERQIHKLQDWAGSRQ
# Chain of Substance-P receptor (P25103 whole entry): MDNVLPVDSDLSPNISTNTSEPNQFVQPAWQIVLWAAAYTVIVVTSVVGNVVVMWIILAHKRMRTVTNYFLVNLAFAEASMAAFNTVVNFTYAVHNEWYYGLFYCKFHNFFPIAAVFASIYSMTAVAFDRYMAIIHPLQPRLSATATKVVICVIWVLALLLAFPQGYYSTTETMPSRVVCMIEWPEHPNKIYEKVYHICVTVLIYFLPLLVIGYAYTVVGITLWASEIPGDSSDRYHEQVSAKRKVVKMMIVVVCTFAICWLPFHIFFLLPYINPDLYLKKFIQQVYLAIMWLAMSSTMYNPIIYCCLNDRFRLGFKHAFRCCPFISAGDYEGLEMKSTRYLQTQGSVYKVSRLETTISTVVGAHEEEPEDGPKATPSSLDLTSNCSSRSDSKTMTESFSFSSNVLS
Structure (SMILES),IC50 [1],Ki [1],IC50 [2],IC50 [3],IC50 ([4]; sf9),IC50 [5],Ki ([6]; hek293),IC50 [7],IC50 ([6]; hek293),IC50 ([4]; read-out: IC50) [nM],Ki ([4]; read-out: Ki) [nM],IC50 ([2]; read-out: IC50) [nM],Ki ([2]; read-out: Ki) [nM],IC50 ([6]; read-out: IC50) [nM],Ki ([6]; read-out: Ki) [nM]
CC(=O)O[C@]1(C(C)=O)CC[C@H]2[C@@H]3C=C(Cl)C4=CC(=O)[C@@H]5C[C@@H]5[C@]4(C)[C@H]3CC[C@@]21C [CYPROTERONE ACETATE],Not Active,Not Active,Not Active,Not Active,Not Active,Not Active,Not Active,Not Active,,,,,,,
Nc1nc(N)nc(NC2CC2)n1 [CYROMAZINE],Not Active,Not Active,Not Active,Not Active,Not Active,Not Active,,Not Active,Not Active,,,,,,
C#C[C@]1(O)CC[C@H]2[C@@H]3CCC4=Cc5oncc5C[C@]4(C)[C@H]3CC[C@@]21C [DANAZOL],Not Active,Not Active,Not Active,Not Active,,Not Active,,Not Active,Not Active,23800,3450,,,,
CCN[C@@H](C)Cc1cccc(C(F)(F)F)c1 [DEXFENFLURAMINE],Not Active,Not Active,Not Active,Not Active,Not Active,Not Active,,Not Active,Not Active,,,,,,
C[C@H](C(=O)O)c1cccc(C(=O)c2ccccc2)c1 [DEXKETOPROFEN],Not Active,Not Active,Not Active,Not Active,Not Active,Not Active,,Not Active,Not Active,,,,,,
CN1C(=O)CN=C(c2ccccc2)c2cc(Cl)ccc21 [DIAZEPAM],Not Active,Not Active,Not Active,Not Active,Not Active,Not Active,,Not Active,Not Active,,,,,,
Cc1c(N(C)CS(=O)(=O)[O-])c(=O)n(-c2ccccc2)n1C.[Na+] [DIPYRONE SODIUM],Not Active,Not Active,Not Active,Not Active,Not Active,Not Active,,Not Active,Not Active,,,,,,
CC(CCc1ccc(O)cc1)NCCc1ccc(O)c(O)c1 (stereo not drawn) [DOBUTAMINE],Not Active,Not Active,,Not Active,Not Active,Not Active,,Not Active,,,,336,186,114,56
CCn1cc(C(=O)O)c(=O)c2cc(F)c(N3CCNCC3)nc21 [ENOXACIN],Not Active,Not Active,Not Active,Not Active,Not Active,Not Active,,Not Active,Not Active,,,,,,
CCC(=O)O[C@H]1[C@H](O[C@@H]2[C@@H](C)[C@H](O[C@H]3C[C@@](C)(OC)[C@@H](O)[C@H](C)O3)[C@@H](C)C(=O)O[C@H](CC)[C@@](C)(O)[C@H](O)[C@@H](C)C(=O)[C@H](C)C[C@@]2(C)O)O[C@H](C)C[C@@H]1N(C)C [ERYTHROMYCIN PROPIONATE],Not Active,Not Active,Not Active,Not Active,Not Active,Not Active,,Not Active,Not Active,,,,,,
C=C(CC)C(=O)c1ccc(OCC(=O)O)c(Cl)c1Cl [ETHACRYNIC ACID],Not Active,Not Active,Not Active,Not Active,Not Active,Not Active,,Not Active,Not Active,,,,,,
C#C[C@]1(O)CC[C@H]2[C@@H]3CCc4cc(O)ccc4[C@H]3CC[C@@]21C [ETHINYL ESTRADIOL],Not Active,Not Active,Not Active,Not Active,Not Active,Not Active,,Not Active,Not Active,,,,,,
OCCO [ETHYLENE GLYCOL],Not Active,Not Active,Not Active,Not Active,Not Active,Not Active,,Not Active,Not Active,,,,,,
CC(=O)OCC(CCn1cnc2cnc(N)nc21)COC(C)=O [FAMCICLOVIR],Not Active,Not Active,Not Active,Not Active,Not Active,Not Active,,Not Active,Not Active,,,,,,
O=C(O)Cc1ccc(-c2ccccc2)cc1 [FELBINAC],Not Active,Not Active,Not Active,Not Active,Not Active,Not Active,,Not Active,Not Active,,,,,,
CCOC(=O)C1=C(C)NC(C)=C(C(=O)OC)C1c1cccc(Cl)c1Cl (stereo not drawn) [FELODIPINE],Not Active,Not Active,Not Active,Not Active,Not Active,Not Active,,Not Active,Not Active,,,,,,
CC(C(=O)O)c1ccc(-c2ccccc2)c(F)c1 (stereo not drawn) [FLURBIPROFEN],Not Active,Not Active,Not Active,Not Active,Not Active,Not Active,,Not Active,Not Active,,,,,,
Cc1cn[nH]c1 [FOMEPIZOLE],Not Active,Not Active,Not Active,Not Active,Not Active,Not Active,,Not Active,Not Active,,,,,,
NC[C@@H]1O[C@H](O[C@H]2[C@@H](O)[C@H](O[C@@H]3[C@@H](O)[C@H](N)C[C@H](N)[C@H]3O[C@H]3O[C@H](CN)[C@@H](O)[C@H](O)[C@H]3N)O[C@@H]2CO)[C@H](N)[C@@H](O)[C@@H]1O [FRAMYCETIN],Not Active,Not Active,Not Active,Not Active,Not Active,Not Active,,Not Active,Not Active,,,,,,
C[C@H]([C@](O)(Cn1cncn1)c1ccc(F)cc1F)S(C)(=O)=O [GENACONAZOLE],Not Active,Not Active,Not Active,Not Active,Not Active,Not Active,,Not Active,Not Active,,,,,,
